# Experimental data as given in PMC6540907, “The nuclear export inhibitor aminoratjadone is a potent effector in extracellular-targeted drug conjugates” (Chemical Science, 2019).
# Tests used:
# [1] = design: method as in PMID 8761384; conditions: standalone drug; cited from earlier work
# nuclear export = tested on: nuclear export; design: method as in PMID 20055390, PMID 26833854; conditions: cited from earlier work
# CRM1 [2] = target: T1, CRM1 (Homo sapiens, UniProt O14980); test: Streptavidin pull-down from HeLa cell lysate with LC-MS/MS identification; assay type: binding; design: endogenous in cells; host or cells: HeLa cells (treated live with biotin conjugate 36, then lysed); conditions: HeLa cells, 100 ng mL–1, 5 h; control additionally incubated with an excess of 1
# T1 sequence (O14980 whole entry): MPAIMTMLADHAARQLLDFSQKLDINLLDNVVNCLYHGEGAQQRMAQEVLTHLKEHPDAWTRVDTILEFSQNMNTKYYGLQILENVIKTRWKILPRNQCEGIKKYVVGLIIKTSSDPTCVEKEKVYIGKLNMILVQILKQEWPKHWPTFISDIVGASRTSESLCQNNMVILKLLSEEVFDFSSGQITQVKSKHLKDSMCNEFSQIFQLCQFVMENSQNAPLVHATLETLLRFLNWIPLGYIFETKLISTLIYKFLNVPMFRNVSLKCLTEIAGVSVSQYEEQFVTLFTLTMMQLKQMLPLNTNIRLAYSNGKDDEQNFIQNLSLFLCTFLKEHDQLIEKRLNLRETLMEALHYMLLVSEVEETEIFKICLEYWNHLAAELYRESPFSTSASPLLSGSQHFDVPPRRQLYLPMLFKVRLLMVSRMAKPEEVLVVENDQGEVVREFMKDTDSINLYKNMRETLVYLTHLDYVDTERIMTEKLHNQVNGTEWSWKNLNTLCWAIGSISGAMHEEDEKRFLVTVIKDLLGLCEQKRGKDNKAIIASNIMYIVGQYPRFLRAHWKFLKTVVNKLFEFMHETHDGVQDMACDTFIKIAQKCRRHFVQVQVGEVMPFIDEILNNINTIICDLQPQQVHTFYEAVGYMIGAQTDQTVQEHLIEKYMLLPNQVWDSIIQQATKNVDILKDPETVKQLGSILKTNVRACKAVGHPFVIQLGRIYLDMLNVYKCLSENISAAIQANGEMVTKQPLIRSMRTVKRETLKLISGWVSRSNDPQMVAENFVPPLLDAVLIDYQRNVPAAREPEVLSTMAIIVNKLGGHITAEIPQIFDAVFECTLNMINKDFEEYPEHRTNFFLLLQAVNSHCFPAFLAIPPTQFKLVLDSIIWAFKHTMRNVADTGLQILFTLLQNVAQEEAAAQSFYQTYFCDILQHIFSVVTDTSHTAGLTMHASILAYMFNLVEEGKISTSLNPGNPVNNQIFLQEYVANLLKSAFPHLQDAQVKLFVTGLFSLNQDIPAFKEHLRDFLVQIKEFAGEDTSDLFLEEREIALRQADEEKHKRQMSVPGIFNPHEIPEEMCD
# Method: To verify that this activity was indeed CRM1-mediated, HeLa cells were incubated with 36 at a concentration of 100 ng mL^–1 for 5 h and lysed.
# The cell lysate was incubated with streptavidin-coupled sepharose beads, and bound proteins were eluted, digested and identified by LC-MS/MS.
# Streptavidin-Pull-down with Ratjadone-biotin and identification of exportin by LC-MSMS A chemical pull down was performed to verify binding of ratjadone to Crm1. HeLa cells were treated with ratjadone-biotin, ratjadone or both at 0.1μg/ml final concentration for 5h. Cells were detached by scraping, washed twice in PBS and lysed in MPER-buffer (Thermo Fisher, Waltham, USA) supplemented with complete protease inhibitor (Roche, Mannheim, Germany). After 5min incubation on ice the lysate was centrifuged (20min, 13000rpm, 4°C) and the supernatant was incubated with streptavidin sepharose high performance (GE healthcare, Freiburg, Germany) overnight at 4°C. The next day beads were washed twice with PBS and resuspended in elution buffer (Roth) and heated to 95°C for 10min. 5% were tested on WesternBlot with a biotin-specific antibody.
# Figure S12: Gel of α-Streptavidin pulldown experiment: Identification of protein band in the eluat of Biotin-PEG3-16S- […]
# CRM1 [3] = target: T1, CRM1; test: Nuclear export inhibition, fluorescent translocation biosensor in recombinant HeLa cells; assay type: cell-based; design: This cellular assay uses HeLa cells that express a recombinant fusion protein; endogenous in cells; host or cells: HeLa cells stably expressing the NLS-GST-GFP-RevNES translocation biosensor (HeLaRevBio); conditions: nuclear export inhibition IC50, HeLa cells expressing translocation biosensor, 1 h incubation
# KB-3.1 cells = test: Flow cytometry, fluorescence intensity per cell; assay type: cell-based, human; conditions: KB-3.1, 1 µM, 30 min, 37 °C
# Method: Analysis of cell labeling with fluorescein-labeled conjugates
# All cell lines were maintained as recommended by the American Type Culture Collection in DMEM or RPMI
# containing 5% glutamine (Thermo Fisher Scientific, Waltham, USA) supplemented with 10% FBS (Thermo
# Fisher Scientific, Waltham, USA). For flow cytrometric analysis cells were detached by trypsin and the
# density was adjusted to 2 x 10^6 cells/ml. The cell suspension was incubated with compounds at 1µM final
# concentration for 30min at 37°C, followed by two washing steps in PBS. For analysis of fluorescein intensity
# a LSRFortessa™ with FACSDiva™ software (BD Biosciences, Heidelberg, Germany) with the 488nm laser in
# combination with 525/50nm band pass filter was used. Data was evaluated using FlowJo software
# (FLOWJO LLC, Oregon, US).
# folate receptor-α, FRα = target: folate receptor-α, FRα; design: method as in ref 31 = [31]; Lu Y. Low P. S. Adv. Drug Delivery Rev. 2012 64 342 352; conditions: read-out: folate affinity of the receptors; cited from earlier work
compound,measurement,setting,value
"CCC(=C/[C@H](C)C/C=C/C(C)=C/[C@@H](C)C(=O)[C@@H](C)[C@H](O)[C@@H](C)C/C(C)=C/C(=O)O)/C=C/[C@@H]1OC(=O)C=C[C@@H]1C [Compound 5, leptomycin B]",outcome of early clinical trials,[1],failed due to its high systemic toxicity
CCC(=C/C(C)C)/C=C/[C@H]1CC=CC(=O)O1 [Compound 8],concentration at which nuclear export is inhibited,nuclear export,25 nM
"CC=CC1OC(C(C=CC=C(C)CC(C)C=C(C)C=CC2CC=CC(=O)O2)NC(=O)OCCc2cn(CCOCCOCCOCCNC(=O)CCCCC3SCC4NC(=O)NC43)nn2)CC(O)C1C (stereo not drawn) [Compound 36, biotin-PEG3-16S-aminoratjadone]",CRM1 identified in streptavidin pull-down,CRM1 [2],clearly identified in this manner and strongly enriched
same,IC50,CRM1 [3],152 nM
O=C1OC2(c3ccc(O)cc3Oc3cc(O)ccc32)c2ccccc21 [fluorescein],fluorescence intensity per cell,KB-3.1 cells,did not label the cells
